Assay results as given in paper PMC8691691 (ACS Chemical Neuroscience, 2021).

Tests used:
GlyT2 S481G mutant = target: T1, GlyT2 S481G mutant (Rattus norvegicus, UniProt P58295, S481G); assay: [3H]glycine transport by GlyT2 mutant in COS7 cells; type: cell-based
T1 construct: expressed in transfected cells; host or cells: COS7
T1 sequence (P58295 1-799 S481G): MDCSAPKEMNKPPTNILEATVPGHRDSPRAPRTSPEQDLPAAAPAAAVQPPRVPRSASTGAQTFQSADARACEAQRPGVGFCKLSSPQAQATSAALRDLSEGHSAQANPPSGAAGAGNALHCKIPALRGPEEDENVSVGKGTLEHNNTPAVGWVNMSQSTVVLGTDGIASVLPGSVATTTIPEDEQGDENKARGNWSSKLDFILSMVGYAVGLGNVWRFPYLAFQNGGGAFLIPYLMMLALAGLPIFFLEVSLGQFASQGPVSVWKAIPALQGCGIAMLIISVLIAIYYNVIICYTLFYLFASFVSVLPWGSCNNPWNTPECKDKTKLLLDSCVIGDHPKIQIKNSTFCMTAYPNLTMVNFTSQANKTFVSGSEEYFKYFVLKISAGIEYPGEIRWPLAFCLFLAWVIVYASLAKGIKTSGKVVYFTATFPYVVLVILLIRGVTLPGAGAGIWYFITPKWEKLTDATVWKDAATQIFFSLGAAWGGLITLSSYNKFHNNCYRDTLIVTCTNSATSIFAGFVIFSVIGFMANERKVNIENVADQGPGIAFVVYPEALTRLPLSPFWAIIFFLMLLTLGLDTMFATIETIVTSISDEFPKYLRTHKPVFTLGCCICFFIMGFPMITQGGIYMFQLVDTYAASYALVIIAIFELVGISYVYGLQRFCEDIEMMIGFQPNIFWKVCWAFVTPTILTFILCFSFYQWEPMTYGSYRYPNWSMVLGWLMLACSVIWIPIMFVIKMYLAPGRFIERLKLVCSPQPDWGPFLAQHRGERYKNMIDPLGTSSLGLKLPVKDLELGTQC

allodynia = settings: nerve ligation injury, streptozotocin-induced diabetic pain, complete Freund's adjuvant-induced inflammatory pain; cited from earlier work

## N[C@@H](COC(c1cccc(F)c1)c1ccccc1OCc1ccccc1)C(=O)O (stereo partly drawn) [ALX1393]
GlyT2 S481G mutant; S481G, 1 μM inhibitor, 25 μM glycine
  effect of mutation on inhibition of glycine transport: more reduced inhibition potency for ALX1393 than for ORG25543
GlyT2 S481G mutant; read-out: IC50 (Table S1)
  IC50: 75 ± 8 nM

## COc1cc(C(=O)NCC2(N(C)C)CCCC2)cc(OC)c1OCc1ccccc1 [ORG25543, N-[[1-(dimethylamino)cyclopentyl]methyl]-3,5-dimethoxy-4-(phenylmethoxy)benzamide]
allodynia
  effect on allodynia: reduces allodynia
